Laboratory results taken from US20040072184A1 (priority 2003, published 2004).

Tested on: SGK2
Type: cell-based, human

Row | Compound | CapK sub (CCPM1) | No-Substrate (CCPM1) | PKB sub (CCPM1) | SGK2 kinase activity (result in words)
1 | C=C1[C@@H](O)[C@@H]2O[C@]3(CC[C@H](/C=C/[C@@H](C)[C@@H]4CC(C)=C[C@@]5(O[C@H](C[C@@](C)(O)C(=O)O)CC[C@H]5O)O4)O3)CC[C@H]2O[C@@H]1[C@@H](O)C[C@H](C)[C@H]1O[C@@]2(CCCCO2)CC[C@H]1C [Okadaic Acid] | 161553 | 2078 | 132171 | stimulated SGK2 kinase activity
2 | COC[C@@H]([C@H](O)[C@H](O)C(=O)NCC[C@H](C)c1nc(/C=C/C[C@@H]2O[C@]3(C[C@@H](O)[C@@H]2C)O[C@H]([C@H](C[C@H](O)[C@H](C)[C@H](O)[C@H](C)/C=C(C)/C(C)=C/C=C/C(C)=C\C#N)OC)[C@H](OP(=O)(O)O)C3(C)C)co1)N(C)C [Calyculin A] | 59335 | 0 | 92540 | stimulated SGK2 kinase activity
